Test results as given in US20230041228A1, “Small Molecule Inhibition of Micro-RNA-210 Reprograms an Oncogenic Hypoxic Circuit” (University of Florida Research Foundation, Incorporated, priority 2017, published 2023).

What was measured:
pre-miR-210 RNA = experiment: In solution fluorescent binding assay; conditions: up to 5000 nM pre-miR-210 added
Protocol: Dissociation constants for the binding of pre-miR-210 RNA to Hoechst 33342 and Targapremir-210 were determined using an in solution, fluorescent binding assay. RNA was folded in 1× Binding Buffer (8 mM Na2HPO4, 190 mM NaCl, 1 mM EDTA, and 40 μg/mL BSA) at 60° C. for 5 min and then allowed to cool to room temperature for 10 min. Hoechst 33342 or Targapremir-210 was added to a final concentration of 500 nM. Next, 1:2 serial dilutions were performed in 1× Binding Buffer supplemented with 500 nM of Hoechst 33342 or Targapremir-210. Solutions were incubated for 30 min and then transferred to Corning non-binding surface 96-well black plates. Fluorescence intensity was then measured on a Bio-Tek FLX-800 plate reader. Change in fluorescence intensity was fit as a function of RNA concentration with equation 1: […]
where I and I0 are the observed fluorescence intensity in the presence and absence of RNA, respectively, Δε is the difference between the fluorescence intensity in the absence and in the presence of infinite RNA concentration, [FL]0 and [RNA]0 are the concentrations of compound (Hoechst 33342 or Targapremir-210) and RNA, respectively, and Kt is the dissociation constant.

miR-210 = experiment: RT-qPCR of miR-210 (mature, pri-, pre-) in MDA-MB-231 cells under hypoxic conditions; type: cell-based; conditions: 200 nM, hypoxic MDA-MB-231 cells
Protocol: MDA-MB-231 cells were cultured in RPMI 1640 medium supplemented with 10% FBS (Sigma), 1× Glutagro (Corning), and 1× Pen/Strep (MP Biomedicals, LLC) (growth medium). Cells cultured in normoxia were maintained at 37° C. in ambient atmosphere (˜21% O2) with 5% CO2. Cells cultured in hypoxia were maintained at 37° C., <1% O2 in a nitrogen filled hypoxic chamber (Billups-Rothenberg, Inc.), and 5% CO2.
Approximately 200-600 ng of RNA was used in subsequent reverse transcription reactions using a miScript II RT Kit (Qiagen) or a qScript cDNA Synthesis Kit (Quanta Biosciences) per the manufacturers' recommended protocols. Primers for RT-qPCR were purchased from Integrated DNA Technologies (IDT) or Eurofins (Table S1) and used without further purification. RT-qPCR samples were prepared using Power SYBR Green PCR Master Mix (Applied Biosystems) and completed by using a 7900HT Fast Real Time PCR System (Applied Biosystems). Expression levels of RNA were normalized to U6 small nuclear RNA, GAPDH mRNA, or 18S rRNA.

## CCOc1ccc(-c2nc3ccc(-c4nc5ccc(N6CCN(C)CC6)cc5[nH]4)cc3[nH]2)cc1 [Hoechst 33342, reference compound]
pre-miR-210 RNA
  affinity for pre-miR-210: No saturable binding was observed
miR-210
  mature miR-210 levels: no statistically significant effect
